Source: US20030118627A1 (DABUR RESEARCH FOUNDATION, priority 2001, published 2003)

Tests used:
[1] = system: MOLT 4; experiment: MTT cytotoxicity assay, MOLT 4 leukemia; type: cell-based; conditions: Homo sapiens, MOLT 4 Leukemia, read-out: Percent cytotoxicity; for cytotoxicity at 1000 µM: 1.0 mM; for cytotoxicity at 2500 µM: 2.5 mM; for cytotoxicity at 4000 µM: 4 mM; for cytotoxicity at 5000 µM: 5 mM; for cytotoxicity at 10000 µM: 10 mM
Experimental: (§1) Briefly, a […] MTT cytotoxicity assay was performed, which is based on the principle of uptake of MTT (3-(4,5-dimethylthiazol-2-yl)-2,5-diphenyl tetrazolium bromide), a tetrazolium salt, by the metabolically active cells where it is metabolized by active mitochondria into a blue colored formazan product that is read spectrophoto-metrically. MTT was dissolved in phosphate buffered saline with a pH of 7.4 to obtain an MTT concentration of 5 mg/ml; the resulting mixture was filtered through a 0.22 micron filter to sterilize and remove a small amount of insoluble residue. For each type of tumor cell, 20,000 to 50,000 cells were seeded in a 96-well culture plate and incubated with the combination in a CO2 incubator for 24 hours. […] The assay was terminated after 24 hours by adding 100 ug (20 ul) of MTT to each well, then incubating for additional one hour, and finally adding 50 ul of 10% SDS-0.01N HCl to each well to lyse the cells and dissolve formazan. After incubating for one hour, the plate was read spectrophotometrically at 540 nm and the percentage cytotoxicity calculated.

[2] = system: PA 1; experiment: MTT cytotoxicity assay, PA 1 ovary; type: cell-based; conditions: Homo sapiens; for cytotoxicity at 1000 µM / cytotoxicity at 2500 µM / cytotoxicity at 4000 µM / cytotoxicity at 5000 µM / cytotoxicity at 10000 µM: PA 1 Ovary, read-out: Percent cytotoxicity; for cytotoxicity at 1000 µM: 1.0 mM; for cytotoxicity at 2500 µM: 2.5 mM; for cytotoxicity at 4000 µM: 4 mM; for cytotoxicity at 5000 µM: 5 mM; for cytotoxicity at 10000 µM: 10 mM
Experimental: as §1

[3] = system: PTC; experiment: MTT cytotoxicity assay, PTC colon; type: cell-based; conditions: Homo sapiens, read-out: Percent cytotoxicity; for cytotoxicity at 1000 µM: 1.0 mM; for cytotoxicity at 2500 µM: 2.5 mM; for cytotoxicity at 4000 µM: 4 mM; for cytotoxicity at 5000 µM: 5 mM; for cytotoxicity at 10000 µM: 10 mM
Experimental: as §1

[4] = system: Miapaca2; experiment: MTT cytotoxicity assay, Miapaca2 pancreas; type: cell-based; conditions: Homo sapiens, read-out: Percent cytotoxicity; for cytotoxicity at 1000 µM: MIA PaCa-2, 1.0 mM; for cytotoxicity at 2500 µM: MIA PaCa-2, 2.5 mM; for cytotoxicity at 4000 µM: MIA PaCa-2, 4 mM; for cytotoxicity at 5000 µM: MIA PaCa-2, 5 mM; for cytotoxicity at 10000 µM: MIA PaCa-2, 10 mM
Experimental: as §1

[5] = system: DU145; experiment: MTT cytotoxicity assay, DU145 prostate; type: cell-based; conditions: Homo sapiens, read-out: Percent cytotoxicity; for cytotoxicity at 1000 µM: DU-145, 1.0 mM; for cytotoxicity at 2500 µM: DU-145, 2.5 mM; for cytotoxicity at 4000 µM: DU-145, 4 mM; for cytotoxicity at 5000 µM: DU-145, 5 mM; for cytotoxicity at 10000 µM: DU-145, 10 mM
Experimental: as §1

[6] = system: L132; experiment: MTT cytotoxicity assay, L132 lung; type: cell-based; conditions: Homo sapiens, read-out: Percent cytotoxicity; for cytotoxicity at 1000 µM: 1.0 mM; for cytotoxicity at 2500 µM: 2.5 mM; for cytotoxicity at 4000 µM: 4 mM; for cytotoxicity at 5000 µM: 5 mM; for cytotoxicity at 10000 µM: 10 mM
Experimental: as §1

[7] = system: MCF7; experiment: MTT cytotoxicity assay, MCF7 breast; type: cell-based; conditions: Homo sapiens, MCF7 breast, read-out: Percent cytotoxicity; for cytotoxicity at 1000 µM: 1.0 mM; for cytotoxicity at 2500 µM: 2.5 mM; for cytotoxicity at 4000 µM: 4 mM; for cytotoxicity at 5000 µM: 5 mM; for cytotoxicity at 10000 µM: 10 mM
Experimental: as §1

[8] = system: Swiss albino mice; conditions: both, mouse, in vivo, po, 15 days
Experimental: Acute toxicity studies were performed using the oral route of administration.
A batch of 5 female and 5 male mice each was administered the test substance by oral route. […] Another batch of 5 female and 5 male served as control.
Observations were made three times on the day of dosing and twice daily thereafter for the remainder of 14 days or until reversible toxic signs or symptoms subsided. All gross visible toxic signs and symptoms were recorded. Body weights were recorded prior to dosing and weekly thereafter.

[9] = system: 293; experiment: MTT cytotoxicity assay, 293 kidney; type: cell-based; conditions: Homo sapiens, HEK293, 24 h, read-out: ED50 values of cytotoxicity
Experimental: as §1

In the case of `CC(=O)OC(C(C)=O)N1C(=O)CCC1C(=O)OCc1ccccc1` (centres unmarked) [MGC-6, N-(1-acetoxy-2-ketopropyl)-benzylpyroglutamate], the cytotoxicity at 1000 µM [1] is reported as 41.9 ± 4.2%, the cytotoxicity at 2500 µM [1] is reported as 61.9 ± 5.3% and the cytotoxicity at 4000 µM [1] is reported as 84.9 ± 7.4%. It also gave a cytotoxicity at 5000 µM [1] of 84.8 ± 3.9%, a cytotoxicity at 10000 µM [1] of 87.1 ± 6.8% and a cytotoxicity at 1000 µM [2] of 42.9 ± 4.9%. For the same compound, the cytotoxicity at 2500 µM [2] was 63.9 ± 4.9%, the cytotoxicity at 4000 µM [2] was 86.9 ± 6.9% and the cytotoxicity at 5000 µM [2] was 88.7 ± 5.9%. For the same compound, the cytotoxicity at 10000 µM [2] was 84 ± 7.5%, the cytotoxicity at 1000 µM [3] was 38.9 ± 3.9% and the cytotoxicity at 2500 µM [3] was 59.7 ± 5.3%. The cytotoxicity at 4000 µM [3] was 75.9 ± 4%, the cytotoxicity at 5000 µM [3] was 80.6 ± 7.4% and the cytotoxicity at 10000 µM [3] was 86.4 ± 4%. The cytotoxicity at 1000 µM [4] was 0%, the cytotoxicity at 2500 µM [4] was 23.7 ± 2% and the cytotoxicity at 4000 µM [4] was 51.9 ± 5.2%. The cytotoxicity at 5000 µM [4] was 58.5 ± 5%, the cytotoxicity at 10000 µM [4] was 67.4 ± 3% and the cytotoxicity at 1000 µM [5] was 37.8 ± 2.6%. For the same compound, the cytotoxicity at 2500 µM [5] was 56.9 ± 4.2%, the cytotoxicity at 4000 µM [5] was 78.9 ± 7.4% and the cytotoxicity at 5000 µM [5] was 81.5 ± 7.3%. For the same compound, the cytotoxicity at 10000 µM [5] was 85.9 ± 6.9%, the cytotoxicity at 1000 µM [6] was 2.7 ± 0.2% and the cytotoxicity at 2500 µM [6] was 34.8 ± 5.8%. The cytotoxicity at 4000 µM [6] was 53.9 ± 5%, the cytotoxicity at 5000 µM [6] was 67.9 ± 5% and the cytotoxicity at 10000 µM [6] was 74.7 ± 7.3%. For the same compound, the cytotoxicity at 1000 µM [7] was 0%, the cytotoxicity at 2500 µM [7] was 0% and the cytotoxicity at 4000 µM [7] was 0%. The cytotoxicity at 5000 µM [7] was 13.9 ± 1.1%, the cytotoxicity at 10000 µM [7] was 23.9 ± 2.9% and the safe dose [8] was 75 mg.
Work on `CCOC(=O)C1CCC(=O)N1C(OC(C)=O)C(C)=O` (centres unmarked) [MGC-8] yielded a cytotoxicity at 1000 µM [1] of 40.3 ± 2.9%, a cytotoxicity at 2500 µM [1] of 58.3 ± 4.9% and a cytotoxicity at 4000 µM [1] of 65 ± 5.9%. The cytotoxicity at 5000 µM [1] was 75.2 ± 2.9%, the cytotoxicity at 10000 µM [1] was 81.9 ± 5.2% and the IC50 ([2]; 24 h, PA 1 Ovarian, read-out: ED50 values of cytotoxicity) was 1.8 ± 0.7 mM. The cytotoxicity at 1000 µM [2] was 38 ± 3.7%, the cytotoxicity at 2500 µM [2] was 56 ± 4.8% and the cytotoxicity at 4000 µM [2] was 64.5 ± 5.3%. For the same compound, the cytotoxicity at 5000 µM [2] was 69 ± 2.1%, the cytotoxicity at 10000 µM [2] was 71.7 ± 6.3% and the cytotoxicity at 1000 µM [3] was 32.2 ± 3.9%. The cytotoxicity at 2500 µM [3] was 48.6 ± 2.9%, the cytotoxicity at 4000 µM [3] was 67.7 ± 4.8% and the cytotoxicity at 5000 µM [3] was 76.3 ± 1%. It also gave a cytotoxicity at 10000 µM [3] of 79.6 ± 3%, a cytotoxicity at 1000 µM [4] of 0% and a cytotoxicity at 2500 µM [4] of 61 ± 2.5%. For the same compound, the cytotoxicity at 4000 µM [4] was 89 ± 4.5%, the cytotoxicity at 5000 µM [4] was 88 ± 4.5% and the cytotoxicity at 10000 µM [4] was 86 ± 5%. For the same compound, the cytotoxicity at 1000 µM [5] was 43 ± 3.8%, the cytotoxicity at 2500 µM [5] was 67.4 ± 5.2% and the cytotoxicity at 4000 µM [5] was 69.9 ± 7.9%. The cytotoxicity at 5000 µM [5] was 73.5 ± 3%, the cytotoxicity at 10000 µM [5] was 79.3 ± 1.9% and the cytotoxicity at 1000 µM [6] was 8 ± 1.5%. It also gave a cytotoxicity at 2500 µM [6] of 12 ± 3.3%, a cytotoxicity at 4000 µM [6] of 25 ± 3.5% and a cytotoxicity at 5000 µM [6] of 35 ± 4.1%. It also gave a cytotoxicity at 10000 µM [6] of 45 ± 5.1%, a cytotoxicity at 1000 µM [7] of 16 ± 4.1% and a cytotoxicity at 2500 µM [7] of 36 ± 3.5%. The cytotoxicity at 4000 µM [7] was 70 ± 4.5%, the cytotoxicity at 5000 µM [7] was 73 ± 6% and the cytotoxicity at 10000 µM [7] was 87 ± 7%. It also gave an IC50 [9] of 2.9 ± 0.5 mM and a safe dose [8] of 100 mg.
